Measured values reported in PMC12833730, “Discovery of a First‐in‐Class Covalent Allosteric SHP1 Inhibitor with Immunotherapeutic Activity” (Angewandte Chemie (International Ed. in English), 2025).
Values joined by “and” are separate entries in the source; they are usually repeats but may differ in a detail not shown here. Identical values can stand only once. Like-named read-outs stand apart in the source and are kept apart here.

How the values were obtained:
[1] = Intrinsic reactivity toward GSH, LC-MS; format: physicochemical
Experimental: (§1) The moderate half‐life in the presence of excessive GSH implied the low intrinsic reactivity of Z57117023. e) SHP1 protein was incubated with or without Z57117023 in 3,3‐dimethylglutarate buffer (pH = 7.0) for 60 min at room temperature to form a covalent adduct.
(§2) The area under the curve (AUC) of each measurement was normalized to 10 µM compounds to calculate the percent remaining. Data were fitted using Prism GraphPad 10.1.1.

[2] = tested on: GSH; test: Intrinsic reactivity toward GSH, LC-MS; format: physicochemical; conditions: GSH in 3,3-dimethylglutarate (DMG) buffer, LC-MS
Experimental: as §1, §2

[3] = molecular target: T1, SHP1 (Homo sapiens, UniProt P29350); test: Time-course pNPP progress-curve inactivation kinetics; format: biochemical; conditions: for k inact/K I for SHP1 inactivation: time-course pNPP assay
T1 construct: SHP1, residues 245-543; made in house; host or cells: E. coli BL21(DE3)
Text: Covalent inhibitors generally inactivate their targets through a two‐step process, starting with a reversible binding event (characterized by the dissociation constant K I) and followed by covalent bond formation (represented by the first‐order rate constant of inactivation k inact). Although IC50 values are often utilized to assess the potency of covalent inhibitors, the second‐order rate constant k inact/K I is preferred because it provides a measure of covalent inhibition in a time‐ and dose‐independent manner.^[ [60], [62], [67], [68] ^] Because k inact/K I measurement can be time and labor‐intensive, we developed an efficient method to determine the observed first‐order rate constant (k obs) from the analysis of a progress curve in the presence of an inhibitor.^[ [69] ^] The k obs value is then plotted as a function of inhibitor concentration to obtain the kinetic parameters k inact, K I, and k inact/K I.^[ [70] ^] […] To verify SHP1 covalent modification by Z57117023, we ascertained SHP1 covalent adduct formation by intact protein liquid chromatography‐mass spectrometry (LC‐MS).^[ [58] ^] A single SHP1‐Z57117023 adduct was observed when SHP1 was incubated with Z57117023, with a mass shift of 295.21 Da (calculated 295.54 Da) (Figure 1e), consistent with the loss of a chlorine atom from Z57117023.
Phosphatase Activity Assay: To determine the inhibition kinetics of acquired hits, repurchased compounds from Enamine were serially diluted in a 96-well plate followed by the addition of pNPP at Km concentrations of corresponding proteins. The reaction was initiated by the addition of 20 nM proteins, and the reaction progression was monitored at OD405 using a CLARIOstar Plus Microplate Spectrophotometer (BMG Labtech) for 60 minutes. After background subtraction, the obtained progress curves were fitted to the equation A = v0(1-e^-kt)/k, where A is the absorbance at 405 nm, v0 is the initial rate, k is the kobs of the corresponding reaction. The acquired kobs was then plotted against inhibitor concentrations, which were fitted to kobs = kinact[I]/(KI+[I]), where kinact is the maximum rate of inactivation, [I] is the inhibitor concentration, and KI is the reversible binding affinity of the compound to the protein. Data were fitted using Prism GraphPad 10.1.1.

[4] = molecular target: T1, SHP1; test: Intact protein LC-MS covalent adduct formation; format: binding; conditions: 60 min, room temperature, pH 7.0; single adduct
Experimental: as §1
Covalent inhibitors generally inactivate their targets through a two‐step process, starting with a reversible binding event (characterized by the dissociation constant K I) and followed by covalent bond formation (represented by the first‐order rate constant of inactivation k inact). Although IC50 values are often utilized to assess the potency of covalent inhibitors, the second‐order rate constant k inact/K I is preferred because it provides a measure of covalent inhibition in a time‐ and dose‐independent manner.^[ [60], [62], [67], [68] ^] […] A single SHP1‐Z57117023 adduct was observed when SHP1 was incubated with Z57117023, with a mass shift of 295.21 Da (calculated 295.54 Da) (Figure 1e), consistent with the loss of a chlorine atom from Z57117023.
The mixtures were centrifuged to remove the unfolded SHP1 proteins, and the supernatants were spiked with a control protein CDC14A, followed by loading into SDS‐PAGE gels to quantify the relative SHP1 level.

[5] = molecular target: T1, SHP1; test: IC50 after 10-min/60-min preincubation, DiFMUP phosphatase assay; format: biochemical
Text: The PTP‐catalyzed reaction involves a nucleophilic attack by the conserved active site Cys side chain on the phosphorus atom of phosphotyrosine in the substrate.^[ [53] ^] As such, the PTPs could serve as prime targets for covalent inhibition. Previously described activity‐based probes or covalent ligands for the PTPs are either phosphotyrosine isosteres or thiol‐reactive compounds that covalently modify the active site residues (including the catalytic Cys) and lack sufficient isozyme specificity.^[ [54], [55], [56], [57], [58], [59], [60], [61] ^] Inspired by the resurgence in covalent inhibitors for difficult drug targets, we set out to discover covalent SHP1 inhibitors by screening for electrophilic fragments that bind covalently to SHP1. This strategy is increasingly utilized to identify novel ligands for a target of interest.^[ [47], [62], [63] ^] We assembled a library of 4600 Cys reactive molecules from the Enamine covalent fragment collections containing 49.0% acrylamide, 38.1% chloroacetamide, 5.15% chloromethylketone, 5.20% activated nitrile, 2.10% epoxide, and 0.53% disulfide (Figure S1A). We carried out a high‐throughput biochemical fragment screening of this curated commercially available library against the SHP1 catalytic domain (residues 245–543). Each fragment (500 µM) was incubated with SHP1 (500 nM) for 30 min at room temperature before diluting the reaction 5.5‐fold with 24.45 mM para‐nitrophenyl phosphate (pNPP) to measure the residual PTP activity. This concentration of substrate was chosen to out‐compete any remaining fragment to reduce the inactivation of SHP1 during the enzymatic hydrolysis of pNPP. After a 2‐min incubation at 25 °C, the reaction was quenched by the addition of 5N NaOH, and the production of para‐nitrophenol was determined by absorbance at 405 nm. This assay format afforded a Z’‐factor of 0.70 (Figure S1B), indicating a robust screen to reliably identify hit molecules. To enhance the probability of discovering covalent ligands with inherent preference for SHP1, we also counter‐screened the same library against SHP2, the closest homolog of SHP1, and two other widely studied PTPs, PTP1B and PTPN22 (also called LYP). […] Among these, 31 were repurchased based on their observed preference for SHP1 and structural diversity, 11 of which were confirmed as potential covalent inhibitors for SHP1 based on the time dependency of their half‐maximal inhibition concentration (IC50) values determined with a 10‐min and 60‐min preincubation time, respectively (Table 1).
To further confirm the time-dependent inhibition and determine the IC50 of acquired hits, repurchased compounds from Enamine were serially diluted in a 96-well plate, followed by the addition of proteins at 200 nM. After 10-minute and 60-minute preincubation, 2 µL of the mixture was transferred into 100 µM 6,8-Difluoro-4-Methylumbelliferyl Phosphate (DiFMUP, Invitrogen, cat# D6567) at a final volume of 200 µL. The reaction was allowed to proceed for 5 minutes and quenched by the addition of 40 µl of a 160 µM solution of bpV(Phen) (Sigma-Aldrich, cat# SML0889). The fluorescence signal was measured using a CLARIOstar Plus Microplate Spectrophotometer (BMG Labtech) using excitation and emission wavelengths of 340 nm and 450 nm, respectively. Data were fitted using Prism GraphPad 10.1.1.

[6] = pH 7, 100-fold excess GSH, pH 7.0, room temperature, read-out: half-life (t1/2) toward excess GSH (converted)

T1 sequence (P29350 245-543): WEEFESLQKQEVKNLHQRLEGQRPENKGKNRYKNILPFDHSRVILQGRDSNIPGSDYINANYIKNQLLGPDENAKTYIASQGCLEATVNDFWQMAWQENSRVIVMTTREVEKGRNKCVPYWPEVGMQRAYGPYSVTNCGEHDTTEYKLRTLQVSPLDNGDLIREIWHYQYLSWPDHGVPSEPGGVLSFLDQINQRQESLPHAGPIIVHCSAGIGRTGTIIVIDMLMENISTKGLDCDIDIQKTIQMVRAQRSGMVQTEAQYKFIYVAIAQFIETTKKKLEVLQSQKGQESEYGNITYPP

| SMILES | reactivity toward GSH (in words) [1] | half-life at 10 µM ([2]; pH 7, 100-fold excess GSH, 3,3-dimethylglutarate buffer pH 7.0, room temperature, read-out: half-life with GSH) [h] | half-life at 10 µM [2, 6] [h] | k inact/K I for SHP1 inactivation [3] [M⁻¹ s⁻¹] | mass shift of SHP1 covalent adduct [4] | IC50 ([5]; 10-min preincubation, purchased hits, read-out: SHP1 IC50, 10 min) [µM] | IC50 ([5]; 60-min preincubation, purchased hits, read-out: SHP1 IC50, 60 min) [µM] | selectivity for SHP1 over SHP2, PTP1B, and PTPN22 ([5]; from IC50 values) [fold] | IC50 ([5]; resynthesized compound, 10 min preincubation, read-out: SHP1 IC50, 10 min preincubation) [µM] | IC50 ([5]; resynthesized compound, 60 min preincubation, read-out: SHP1 IC50, 60 min preincubation) [µM] | fold less reactive toward GSH than Z57117023 ([1]; vs Z57117023) [fold] | k inact ([3]; pH 7.0, room temperature) [s⁻¹] | KI (inactivation) ([3]; pH 7.0, room temperature, read-out: K I) [µM] | k inact/K i fold higher than that of Z57117023 ([3]; vs Z57117023) [fold] | selectivity over a large panel of mammalian PTPs ([5]; 60-min preincubation IC50 values, incl. SHP2) [fold] | IC50 ([5]; 60-min preincubation, read-out: 60 min IC50, SHP1) [µM] |
| --- | --- | --- | --- | --- | --- | --- | --- | --- | --- | --- | --- | --- | --- | --- | --- | --- |
| O=C(CCl)Nc1ccc(S(=O)(=O)Nc2nccs2)cc1 [Z57117023, 2-chloro-N-(4-(N-(thiazol-2-yl)sulfamoyl)phenyl)acetamide] | minimal reactivity toward GSH | 7.07 ± 0.918 | ~7.1 | 3.792 | 295.21 Da | 99.1 | 17.5 | > 11 | 118 ± 8.3 | 25.2 ± 1.6 |  |  |  |  |  |  |
| N#Cc1ccsc1NS(=O)(=O)c1ccc(NC(=O)CCl)cc1 [M029, 2-Chloro-N-(4-(N-(3-cyanothiophen-2-yl)sulfamoyl)phenyl)acetamide] |  |  | 34.3 | 49.55 | 319.31 ± 1.14 Da and 319.31 Da |  |  |  |  |  | 5 | 0.0038 ± 0.008 | 76.7 ± 12.5 | 13 | > 22.4 | 2.6 ± 0.5 |
